Reference: patent publication US8809344B2, “Compounds, compositions, and methods for control of hepatitis C viral infections” (priority 2008, dated 2014)

How the values were obtained:
[1] = system: genotype 1b (Con1 strain) subgenomic replicon in 80978-resistant Clone A cells; assay: 80978-resistant Clone A cells, HCV RNA by quantitative RT-PCR; format: cell-based; settings: Hepatitis C virus, 72 h
Protocol: In an effort to gain insight into the target of 80978, Clone A cells were selected for resistance to 80978. Clone A cells are a human hepatoma cell line that contains a stable genotype 1b (Con1 strain) subgenomic replicon. Cells were cultured for 12 days in medium containing 10 μM 80978 and 1 mg/ml Geneticin™ (Invitrogen). Medium was changed every 3-4 days to replenish compound, and cells were split as needed to maintain subconfluent cultures. After 12 days of growth in the presence of 10 μM 80978, the concentration of 80978 was increased to 20 μM and cultured for an additional 19 days. Control Clone A cells were grown in parallel in the presence of diluent only. After this culture period, cells were evaluated for response to 80978.
Control cells and cells that had been cultured in the presence of 80978 were treated in triplicate with 3-fold serial dilutions of compound for 72 hours. At the end of this incubation period, total RNA was extracted, and HCV RNA levels were measured by quantitative RT-PCR using primers that recognize the 3′NTR.

[2] = system: replicon RNA from 80978-resistant and control Clone A cells in Huh7b cells; assay: Sensitivity of Huh7b cells electroporated with total RNA from resistant or control Clone A cells; format: cell-based, hepatitis C virus
Description: To determine whether resistance was replicon-associated, total RNA was extracted from 80978-resistant and control cells and re-introduced via electroporation into naïve Huh7b cells, the parental cell line of Clone A cells. Electroporated cells that harbored replicon were selected with Geneticin™, pooled, and assayed for sensitivity to 80978.

[3] = system: parental genotype 1b (Con1 strain) subgenomic reporter replicon; assay: Parental genotype 1b reporter replicon IVT RNA in Huh7.5 cells; format: cell-based; settings: Hepatitis C virus
Description: (§1) To identify nucleotide changes that confer resistance to 80978, replicon RNA was reverse transcribed and amplified from total RNA extracted from 80978-resistant and control Clone A cells. […] One silent mutation at amino acid 1771 was also observed. Each mutation was introduced independently into a stable genotype 1b (Con1 strain) subgenomic reporter replicon plasmid via site-directed mutagenesis. […] The sequence of the wild type NS4B encoding sequence is provided as SEQ ID NO:1, the sequence of the mutated NS4B nucleotide sequence encoding the F1809V mutation is provided as SEQ ID NO:3, and the sequence of the mutated NS4B nucleotide sequence encoding the F1809L mutation is provided as SEQ ID NO:5. The sequence of the wild type NS4B protein is provided as SEQ ID NO:2, the sequence of the mutated NS4B protein with the F1809V mutation is provided as SEQ ID NO:4, and the sequence of the mutated NS4B nucleotide sequence encoding the F1809L mutation is provided as SEQ ID NO:6. […] A differential response was observed between cells electroporated with different replicon RNAs.

[4] = system: HCV genotype 1b subgenomic replicon (Con1 strain); assay: microbe, parasite or virus in culture; format: cell-based; settings: Hepatitis C virus; 24 hours post-treatment; Renilla luciferase; Huh7.5 cells
Description: The replicon used in these studies was a transient genotype 1b subgenomic replicon generated from the Con1 strain. In this replicon, the HCV internal ribosome entry site (IRES) within the 5′ non-translated region (NTR) drives expression of the first 32 amino acids of the core protein fused to humanized Renilla luciferase (hRluc). The encephalomycarditis IRES lies 3′ to the hRluc open reading frame (ORF) and drives expression of non-structural (NS) proteins NS3 through NS5B. Huh7.5 cells (U.S. patent application Ser. No. 10/534,571) harboring this replicon were seeded into 96-well plates at 20,000 cells per well in medium containing 10% FBS, 1× penicillin/streptomycin, 1× non-essential amino acids, and 100 ng/ml Fungizone. After a four hour attachment period, compound was added to wells using a five point 3-fold serial dilution series with four replicate treatments per dose. Final DMSO percentage was 1% in a total volume of 200 ul. Compound-mediated HCV inhibition and toxicity were assayed 24 hours post-treatment using Renilla luciferase readout and an ATP viability assay (CellTiter-Glo, Promega, Madison, Wis., USA), respectively.

[5] = system: genotype 2a replicon encoding genotype 1b NS4B amino acids 53 to 218; assay: Chimeric genotype 1b/2a replicon (NS4B aa 53 to 218 from 1b) in Huh7.5 cells; format: cell-based, hepatitis C virus
Description: (§2) That NS4B is the target of 80978 was confirmed by a complementary approach. The differential response to 80978 by HCV genotype 1b and 2a replicons allowed the use of chimeric replicons to narrow down the region of the HCV genotype 1b NS4B coding region that confers sensitivity to 80978. The nucleotide sequence of the wild type HCV genotype 2a NS4B is provided as SEQ ID NO: 7 and the wild type HCV genotype 2a NS4B protein sequence is provided as SEQ ID NO:8. Using a plasmid containing an 80978-resistant stable HCV genotype 2a subgenomic reporter replicon cDNA, six replacement, or chimeric constructs were made, where the regions encoding the following amino acids of NS4B were replaced with the regions encoding the corresponding amino acids of NS4B from HCV genotype 1b: (i) 7-254, (ii) 7-52, (iii) 53-254, (iv) 219-254, (v) 7-52 and 219-254, and (vi) 53 to 218. The full-length NS4B protein is 261 amino acids in length and is provided as SEQ ID NO:2. Thus, if any of these segments of NS4B from genotype 1b are sufficient to confer 80978-sensitivity to a genotype 2a HCV replicon, it will render the chimeric genotype 1b/genotype 2a replicon sensitive to the compound.
(§3) Response to 80978 was measured initially in unselected cells. […] All of the chimeric and wild type control constructs were responsive to Cyclosporin A (CsA).

[6] = system: genotype 2a replicon encoding genotype 1b NS4B amino acids 53-254; assay: Chimeric genotype 1b/2a replicon (NS4B aa 53-254 from 1b) in Huh7.5 cells; format: cell-based, hepatitis C virus
Description: as §2, §3

[7] = ATP viability assay (CellTiter-Glo) in replicon-harboring Huh7.5 cells; format: cell-based, human; settings: human; 24 hours post-treatment; Huh7.5 cells harboring transient genotype 1b replicon
Protocol: Inhibition of HCV replication by AP0089652, AP0080978 (enantiomer 2 from Example 1) and AP0080977 (enantiomer 1 from Example 1) were assayed by exposing cells harboring an HCV genotype 1b replicons to the compounds and quantitating HCV replicon levels following exposure. The replicon used in these studies was a transient genotype 1b subgenomic replicon generated from the Con1 strain. In this replicon, the HCV internal ribosome entry site (IRES) within the 5′ non-translated region (NTR) drives expression of the first 32 amino acids of the core protein fused to humanized Renilla luciferase (hRluc). The encephalomycarditis IRES lies 3′ to the hRluc open reading frame (ORF) and drives expression of non-structural (NS) proteins NS3 through NS5B. Huh7.5 cells (U.S. patent application Ser. No. 10/534,571) harboring this replicon were seeded into 96-well plates at 20,000 cells per well in medium containing 10% FBS, 1× penicillin/streptomycin, 1× non-essential amino acids, and 100 ng/ml Fungizone. After a four hour attachment period, compound was added to wells using a five point 3-fold serial dilution series with four replicate treatments per dose. […] Compound-mediated HCV inhibition and toxicity were assayed 24 hours post-treatment using Renilla luciferase readout and an ATP viability assay (CellTiter-Glo, Promega, Madison, Wis., USA), respectively. […]

[8] = system: genotype 1b (Con1 strain) replicon with silent mutation at amino acid 1771; assay: Silent-mutation reporter replicon IVT RNA in Huh7.5 cells; format: cell-based; settings: Hepatitis C virus
Description: as §1

For O=C(NCc1cccs1)c1nn2c(c1Cl)N[C@H](c1ccco1)C[C@@H]2C(F)(F)F (single isomer, unassigned) [Compound 80978], the EC50 [1] was > 25000 nM, the “sensitivity to 80978” value ([2]; Huh7b cells electroporated with total RNA from 80978-resistant cells) was “maintained resistance” and the “sensitivity to 80978” value ([2]; Huh7b cells electroporated with total RNA from control cells) was “sensitive”. The EC50 [3] was 290 nM, the EC50 [4] was 1800 nM and the “response to 80978” value ([5]; Geneticin-selected stable replicon-containing cells, amino acids 53-218) was “responsive”. The EC50 ([5]; Hepatitis C virus, Huh7.5) was < 2500 nM, the “response to 80978” value ([6]; Geneticin-selected stable replicon-containing cells, amino acids 53-254) was “responsive” and the EC50 ([6]; Hepatitis C virus, Huh7.5) was < 2500 nM. The CC50 at 24 h [7] was > 100000 nM and the EC50 [8] was 240 nM.
